Laboratory results published in patent US4992450A, “Piperidine opioid antagonists” (Eli Lilly and Company, priority 1989, dated 1991).
Counter-ions that a name gives are not always drawn. Like-named read-outs stand apart in the source and are kept apart here.

Columns and labels:
mu receptor [1] = target: T1, mu receptor (Rattus norvegicus, UniProt P33535); experiment: Opioid receptor binding displacement assay, mu site (rat whole brain minus cerebellum, 3H ligand); design: species or system Male Sprague Dawley rats
T1 construct: rat whole brain minus cerebellum for mu and delta sites; from tissue; host or cells: rat whole brain minus cerebellum, frozen pellet fraction
Description: (§1) This assay was conducted by the following procedure.
(§2) Male Sprague Dawley rats for mu and delta site experiments and male Hartley guinea pigs for kappa site experiments were sacrificed via decapitation and the brains were removed. The brain tissue, rat whole brain minus cerebellum for mu and delta sites and guinea pig cortex for the kappa site, was homogenized in a Teflon and glass tissue homogenizer. A supernatant I, pellet IV, fraction was frozen in a nitrogen freezer at 1.33 g/ml concentration and stored for not longer than five weeks prior to use. Pellets were rehydrated with physiological buffer prior to use.
(§3) The reaction was initiated by the addition of the rehydrated tissue which has been preincubated at 37° C. for 20 minutes. The reaction mixture was incubated in a 37° C. water bath for 20 minutes. The reaction was terminated by rapid filtration, (Amicon vacuum manifolds), through Whatman GF/C glass filters that had been presoaked in Krebs-Hepes buffer pH 7.4. The filters were then washed 2× with 5 ml of ice cold Krebs-Hepes buffer pH 7.4. Washed filters were placed in scintillation vials and 10 ml PCS, (Amersham), was added and samples counted in a Searle D-300 beta counter. Means and standard error statistics were calculated for triplicate experimental determinations in certain cases. The procedure was slightly modified for the kappa site. The tissue was pretreated with 100 nM concentrations of mu and delta receptor site blockers. The incubation time for the reaction mixture was 45 minutes at 37° C.

mu receptor [2] = target: T2, mu receptor (Mus musculus, UniProt P42866); experiment: Mouse writhing assay, antagonism of morphine analgesia (mu); type: in vivo, CF-1 male mice; conditions: sc, read-out: Mu AD50
T2 construct: Five CF-1 male mice (Charles River, Portage, Mich.); from tissue; host or cells: whole living CF-1 male mice (in vivo)

[3] = test system: meal fed obese Zucker rats; experiment: Food consumption assay in meal fed obese Zucker rats; type: in vivo; conditions: Rattus norvegicus, sc, 4 h, amount to decrease food consumption 20% during first four hours
Excerpt: The following assay was employed to evaluate the ability of the compounds of the invention to effect food and water consumption of meal fed obese Zucker rats.
According to this procedure, 3-4 month old obese Zucker rats were trained to eat food daily from 8:00 A.M. to 4:00 P.M. only, such that the body weight gain approximates that if the rats were fed ad libitum. These rats were allowed to consume water at all times. Four groups of rats with four rats in each group, two female and two male, were formed. One group served as control for the other three groups each day. Each of the other groups were given a subcutaneous dose of the compound to be evaluated. The test compound was formulated in physiological saline containing 10% dimethylsulfoxide by volume.
Animals remained drug free for 4 days before the next test. Food and water consumption of each rat were measured for the first four hours. A test on one compound was run for three consecutive days. The drug effect was expressed as the percent of the control for that test day.
In the Table, column 1 gives the Example Number of the compound evaluated; and column 2 provides the ED20 in mg/kg, wherein ED20 represents the amount of compound evaluated in mg/kg necessary to decrease food consumption 20% during the first four hours of the experiment.

kappa receptor [4] = target: T3, kappa receptor (Mus musculus, UniProt P33534); experiment: in vivo; design: species or system CF-1 male mice; conditions: sc, read-out: Kappa AD50
T3 construct: Five CF-1 male mice (Charles River, Portage, Mich.); from tissue; host or cells: whole living CF-1 male mice (in vivo)

kappa receptor [5] = target: T4, kappa receptor (Cavia porcellus, UniProt P41144); experiment: Opioid receptor binding displacement assay, kappa site (guinea pig cortex, 3H ligand); design: species or system male Hartley guinea pigs
T4 construct: guinea pig cortex for the kappa site; from tissue; host or cells: guinea pig cortex, frozen pellet fraction
Description: as §1, §2, §3

kappa receptors = target: T5, kappa receptors (Rattus norvegicus, UniProt P34975); experiment: Rat diuresis assay, antagonism of bremazocine-induced urination; type: in vivo, male Long-Evans hooded rats; conditions: sc, rats, s.c., urinary output reduced to 50% of effect of 0.08 mg/kg bremazocine alone
T5 construct: sixty male Long-Evans hooded rats; from tissue; host or cells: whole living male Long-Evans hooded rats (in vivo)
Description: As such, the compounds of the invention were also evaluated in a rat diuresis assay conducted according to the following procedure described by Leander et al. in Drug Development Research 4:421-427 (1984) in an effort to further establish the ability of the present compounds to block kappa receptors.
According to this procedure, sixty male Long-Evans hooded rats (Charles River Breeding Laboratories, Portage, Mich.) weighing between about 300 and 500 grams each were housed either individually or in pairs in a temperature-controlled (23° C.) colony room which was illuminated between 6:00 A.M. and 6:00 P.M. Rodent chow and tap water were continuously available except during the measurement of urine output. The animals were used repeatedly, but no more frequently than twice a week.
The animals were then injected with various doses of the test compounds. To measure urine output, the animals were removed from the home cages, weighed, injected and placed in metabolism cages for 5 hr. Excreted urine was funneled into graduated cylinders. Cumulative urine volumes were determined at designated time intervals, usually at 2 and 5 hr after injection.
The compounds which are salt forms were dissolved in distilled water. If necessary, the compounds were dissolved in distilled water with the aid of either a few drops of lactic acid or hydrochloric acid and gentle warming. All injections were s.c. in a volume of 1 ml/kg of body weight. During tests for antagonism, two injections were given, one on each side of the body.
In the Table, column 1 provides the Example Number of the compound tested; column 2, the amount of compound in mg/kg necessary to reduce the urinary output to 50% of the effect produced by 0.08 mg/kg of bremazocine alone two hours after injection of bremazocine and the test compound; and column 3, the amount of compound in mg/kg necessary to reduce the urinary output to 50% of the effect produced by 0.08 mg/kg of bremazocine alone five hours after injection of bremazocine and the test compound.

[6] = rat brain minus cerebellum, pH 7.4, 37° C., 20 minutes, read-out: Ki Mu
[7] = guinea pig cortex, pH 7.4, 37° C., 45 minutes, mu and delta sites blocked (100 nM), read-out: Ki Kappa
[8] = 2 h, two hours after injection, read-out: AD50 Two Hours
[9] = 5 h, five hours after injection, read-out: AD50 Five Hours

T4 sequence (P41144 whole entry): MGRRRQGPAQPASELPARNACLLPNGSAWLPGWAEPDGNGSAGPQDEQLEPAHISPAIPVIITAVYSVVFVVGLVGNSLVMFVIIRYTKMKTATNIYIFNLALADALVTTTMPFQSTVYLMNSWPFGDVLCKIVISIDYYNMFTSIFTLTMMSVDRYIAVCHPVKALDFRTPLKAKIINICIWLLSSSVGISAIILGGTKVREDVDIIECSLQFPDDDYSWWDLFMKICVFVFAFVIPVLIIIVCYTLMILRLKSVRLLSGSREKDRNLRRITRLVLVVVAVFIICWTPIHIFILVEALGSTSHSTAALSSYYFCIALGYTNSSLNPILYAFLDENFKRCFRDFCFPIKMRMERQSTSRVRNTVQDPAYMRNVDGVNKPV
T1 sequence (P33535 whole entry): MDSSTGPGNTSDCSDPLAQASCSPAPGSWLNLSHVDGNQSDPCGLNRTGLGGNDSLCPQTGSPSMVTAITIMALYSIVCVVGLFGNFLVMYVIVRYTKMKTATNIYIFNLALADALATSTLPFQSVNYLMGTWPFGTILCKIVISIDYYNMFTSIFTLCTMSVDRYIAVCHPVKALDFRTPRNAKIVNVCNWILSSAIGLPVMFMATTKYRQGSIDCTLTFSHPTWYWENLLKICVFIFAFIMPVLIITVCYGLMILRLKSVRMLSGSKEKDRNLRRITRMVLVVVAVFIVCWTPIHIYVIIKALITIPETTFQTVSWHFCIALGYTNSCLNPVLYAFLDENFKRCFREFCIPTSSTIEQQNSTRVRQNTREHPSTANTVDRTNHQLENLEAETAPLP
T2 sequence (P42866 whole entry): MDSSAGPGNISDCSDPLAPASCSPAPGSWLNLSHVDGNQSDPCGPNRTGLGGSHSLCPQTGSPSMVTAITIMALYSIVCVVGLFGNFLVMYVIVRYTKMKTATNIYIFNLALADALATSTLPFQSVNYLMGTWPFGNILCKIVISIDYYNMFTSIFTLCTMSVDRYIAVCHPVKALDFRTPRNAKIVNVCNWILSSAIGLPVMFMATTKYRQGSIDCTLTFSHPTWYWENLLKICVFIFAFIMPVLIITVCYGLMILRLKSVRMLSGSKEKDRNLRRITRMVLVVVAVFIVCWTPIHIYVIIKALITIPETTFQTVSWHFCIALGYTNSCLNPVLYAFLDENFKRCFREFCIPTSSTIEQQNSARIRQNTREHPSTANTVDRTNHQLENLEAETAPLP
T5 sequence (P34975 whole entry): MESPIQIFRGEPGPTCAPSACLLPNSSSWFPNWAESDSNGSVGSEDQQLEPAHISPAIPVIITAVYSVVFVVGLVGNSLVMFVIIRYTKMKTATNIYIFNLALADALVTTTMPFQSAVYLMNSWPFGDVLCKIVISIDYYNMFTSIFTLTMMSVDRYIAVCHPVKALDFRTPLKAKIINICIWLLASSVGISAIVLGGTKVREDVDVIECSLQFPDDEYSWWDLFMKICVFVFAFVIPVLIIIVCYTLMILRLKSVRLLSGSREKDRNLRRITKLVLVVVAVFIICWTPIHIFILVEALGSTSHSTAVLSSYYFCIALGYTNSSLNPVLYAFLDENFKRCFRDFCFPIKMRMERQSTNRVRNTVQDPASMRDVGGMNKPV
T3 sequence (P33534 whole entry): as the sequence (P34975 whole entry) above, with E11D, A17S, P51S, V308A counted along it

SMILES | Ki (mu receptor [1]; [6]) [nM] | ED50 (mu receptor [2]) [mg/kg] | ED20 [3] [mg/kg] | ED50 (kappa receptor [4]) [mg/kg] | Ki (kappa receptor [5]; [7]) [nM] | ED50 (kappa receptors; [8]) [mg/kg] | ED50 (kappa receptors; [9]) [mg/kg] | Ki (mu receptor [1]) [nM] | Ki (kappa receptor [5]) [nM]
C[C@H]1CN(CCC(O)c2ccccc2)CC[C@@]1(C)c1cccc(O)c1 (relative stereo) [Compound A, 4β-(3-Hydroxyphenyl)-3β,4α-dimethyl-α-phenyl-1-piperidinepropanol hydrochloride, reference compound] | 1 | 0.05 | 0.55 | 0.92 | 22.7 | 4.09 | 2.65 |  | 
C[C@H]1CN(CC[C@H](O)C2CCCCC2)CC[C@@]1(C)c1cccc(O)c1 [Example 23, trans-(+)-1-[S-(3-Hydroxy-3-cyclohexylpropyl)]-3,4-dimethyl-4-(3-hydroxyphenyl)piperidine] | 0.41 ± 0.09 | 0.01 | 0.05 | 0.07 | 2.02 ± 0.46 | 0.4 | 0.38 |  | 
CC(C)CCCN1CCC(C)(c2cccc(O)c2)C(C)C1 (stereo not drawn) [Example 15, trans-(±)-1-(4-Methylpentyl)-3,4-dimethyl-4-(3-hydroxyphenyl)piperidine hydrochloride] |  | 0.11 | 3.65 | 0.09 |  | 0.27 | 0.39 | 1.25 ± 0.4 | 9.43 ± 1.67
